Assay results: patent US8354399B2, “Substituted indazole derivatives active as kinase inhibitors” (Nerviano Medical Sciences S.R.L., priority 2008, dated 2013)

Experiments:
IGF-1R = target: T1, IGF-1R (Homo sapiens, UniProt P08069); experiment: Biochemical assay for inhibitors of IGF-1R kinase activity
T1 construct: amino acid residues 960-1367 of precursor protein; made in house; host or cells: H5 insect cells (baculovirus; virus generated in Sf21)
Experimental: Preparation of IGF-1R for Use in Biochemical Assay
Human cDNA was used as template for amplification by polymerase chain reaction (PCR) of the predicted cytoplasmic portion of IGF-1R (amino acid residues 960-1367 of precursor protein; see NCBI Entrez Protein Accession #P08069) which includes the entire kinase domain. PCR was conducted using the forward primer sequence
Biochemical Assay for Inhibitors of IGF-1R Kinase Activity
The inhibitory activity of putative kinase inhibitors and the potency of selected compounds were determined using a trans-phosphorylation assay.
A specific substrate was incubated with the kinase in appropriate buffer conditions in the presence of ATP traced with ^33P-γ-ATP (gamma phosphate-labeled, Redivue™ Code Number AH9968, 1000-3000Ci/mmole, Amersham Biosciences Piscataway, N.J., USA), optimal cofactors and test compound.
At the end of the phosphorylation reaction, more than 98% cold and radioactive ATP were captured by an excess of Dowex ion exchange resin. The resin was allowed to settle to the bottom of reaction wells by gravity. Supernatant, containing substrate peptide, was subsequently withdrawn and transferred into a counting plate, and radioactivity (corresponding to phosphate incorporated into peptide) was evaluated by β-counting.
Kinase buffer was composed of 50 mM HEPES pH 7.9 containing 3 mM MnCl2, 1 mM DTT, 3 microM Na3VO4, and 0.2 mg/mL BSA. 3× KB is buffer of the same composition and pH as KB, but with three times the concentration of each component.
Prior to starting the kinase inhibition assay, IGF-1R was pre-phosphorylated in order to linearize reaction kinetics. To achieve this, the desired total quantity of enzyme was prepared at an enzyme concentration of 360 nM in KB containing 100 microM ATP, and this preparation was incubated for 30 min at 28° C. 3× Enzyme Mix was obtained by diluting this preactivated enzyme 20-fold in 3× KB. […]

JAK2 = target: T2, JAK2 (Homo sapiens, UniProt O60674); experiment: Biochemical assay for inhibitors of JAK2 kinase activity
T2 construct: The assay has been performed using the commercially available JAK2 kinase domain; purchased Invitrogen, Eugene, Oreg
Text: Biochemical Assay for Inhibitors of JAK2 Kinase Activity
General Principle—A specific JAK2 peptide substrate is trans-phosphorylated by JAK2 kinase in the presence of ATP traced with ^33P-γ-ATP. At the end of the phosphorylation reaction, 98% of the cold and radioactive ATP is captured by an excess of dowex ion exchange resin that eventually settles by gravity to the bottom of the reaction plate. The supernatant is subsequently withdrawn and transferred into a counting plate that is then evaluated by β-counting.
JAK2 Kinase Buffer (KB—Kinase buffer was composed of 50 mM HEPES pH 7.5 containing 10 mM MgCl2, 2.5 mM DTT, 10 microM Na3VO4, and 0.2 mg/mL BSA. 3× KB is buffer of the same composition and pH as KB, but with three times the concentration of each component.
Assay conditions—The JAK2 kinase assay was run with a final enzyme concentration of 1 nM, in the presence of 60 microM ATP, 3 nM 33P-γ-ATP and 64 microM of substrate Jaktide (Aminoacid sequence: LPLDKDYYVVREPGQ). The Jaktide was purchased from American Peptide Company (Sunnyvale, Calif.).
Compound Dilution—For IC50 determination, test compounds are received as a 1 mM solution in 100% DMSO, distributed into 96 well plates: compounds are then plated into the first column of a microtiter plate (A1 to G1), 100 μl/well. […]
Another mixing cycle is performed after all the plates are stopped, this time using normal tips: the plates are then allowed to rest for about one hour in order to maximize ATP capture. At this point, 27 μl of the supernatant are transferred into 384-Optiplates (Perkin-Elmer), with 50 μl of Microscint 40 (Perkin-Elmer); after 5 min of orbital shaking the plates are read on a Perkin-Elmer Top Count radioactivity counter.
Data Fitting—Data are analyzed by an internally customized version of the SW package “Assay Explorer” that provides sigmoidal fitting of the ten-dilutions curves for IC50 determination in the secondary assays/hit confirmation routines.

ALK = target: T3, ALK (Homo sapiens, UniProt Q9UM73); experiment: Biochemical assay for inhibitors of ALK kinase activity
T3 construct: made in house; host or cells: Sf21 insect cells (baculovirus)
Text: Preparation of ALK Cytoplasmic Domain for Use in Biochemical Assay
ALK cytoplasmic domain, corresponding to the residue 1060-1620 (the numbers of the amino acid residues refer to the Genbank accession number NP 004295.2) was PCR amplified from a human testis cDNA library.
For cloning purposes, the oligonucleotides included attB sites in order to obtain an attB-flanked PCR product suitable for cloning using the Gateway technology (Invitrogen). Furthermore, for purification purposes, forward primer included a PreScission cleavage site (Amersham Biosciences). The resulting PCR product was cloned in the baculovirus expression vector pVL1393 (Invitrogen) Gateway-modified. For expression and purification purpose, a GST tag was added N-terminal to the ALK cytoplasmic domain. Cloning was performed according to the protocols described in the Gateway manual (Invitrogen).
Biochemical Assay for Inhibitors of ALK Kinase Activity
ALK enzyme needs pre-activation in order to linearize reaction kinetics.
Kinase buffer was composed of 50 mM HEPES pH 7.5 containing 1 mM MnCl2, 5 mM MgCl2, 1 mM DTT, 3 microM Na3VO4, and 0.2 mg/mL BSA. 3× KB is buffer of the same composition and pH as KB, but with three times the concentration of each component.
The kinase assay was run with a final enzyme concentration of 20 nM, in the presence of 8 microM ATP, 1 nM ^33P-γ-ATP and 2 microM MBP. The MPB was purchased from Sigma-Aldrich, St. Louis, Mo., USA.

T1 sequence (P08069 960-1367): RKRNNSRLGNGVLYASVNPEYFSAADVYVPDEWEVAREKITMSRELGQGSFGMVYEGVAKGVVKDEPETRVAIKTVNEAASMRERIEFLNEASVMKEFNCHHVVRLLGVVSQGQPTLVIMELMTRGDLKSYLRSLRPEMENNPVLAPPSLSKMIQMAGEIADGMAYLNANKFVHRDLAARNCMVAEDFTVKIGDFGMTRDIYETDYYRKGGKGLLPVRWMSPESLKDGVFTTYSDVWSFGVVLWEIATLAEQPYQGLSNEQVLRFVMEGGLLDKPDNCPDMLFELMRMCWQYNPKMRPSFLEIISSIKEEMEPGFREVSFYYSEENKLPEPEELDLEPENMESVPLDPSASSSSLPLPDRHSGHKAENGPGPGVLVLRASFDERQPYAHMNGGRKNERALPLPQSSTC
T2 sequence (O60674 849-1124 limits assumed): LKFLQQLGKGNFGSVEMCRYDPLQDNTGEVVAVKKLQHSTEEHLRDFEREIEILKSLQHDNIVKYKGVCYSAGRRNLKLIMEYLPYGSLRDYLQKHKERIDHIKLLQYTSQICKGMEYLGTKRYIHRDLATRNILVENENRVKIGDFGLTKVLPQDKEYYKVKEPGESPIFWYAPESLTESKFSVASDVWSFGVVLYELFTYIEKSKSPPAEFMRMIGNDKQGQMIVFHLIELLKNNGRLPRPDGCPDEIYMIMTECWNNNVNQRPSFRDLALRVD
T3 sequence (Q9UM73 1060-1620): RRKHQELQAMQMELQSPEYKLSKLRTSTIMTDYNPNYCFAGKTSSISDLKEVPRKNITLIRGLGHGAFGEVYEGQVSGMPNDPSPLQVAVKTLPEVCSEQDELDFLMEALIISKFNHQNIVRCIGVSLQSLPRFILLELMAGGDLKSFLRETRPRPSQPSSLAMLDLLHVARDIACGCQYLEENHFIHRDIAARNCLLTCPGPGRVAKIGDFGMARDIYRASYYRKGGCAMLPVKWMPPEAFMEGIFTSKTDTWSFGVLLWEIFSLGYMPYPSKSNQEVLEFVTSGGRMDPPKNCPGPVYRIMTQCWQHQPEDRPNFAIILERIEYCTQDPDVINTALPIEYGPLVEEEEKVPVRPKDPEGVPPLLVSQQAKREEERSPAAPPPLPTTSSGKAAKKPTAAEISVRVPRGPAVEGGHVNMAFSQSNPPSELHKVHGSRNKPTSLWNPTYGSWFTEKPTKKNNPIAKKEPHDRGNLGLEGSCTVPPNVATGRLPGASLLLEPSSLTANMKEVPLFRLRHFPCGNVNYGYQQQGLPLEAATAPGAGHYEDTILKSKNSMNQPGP

Row | Structure (SMILES) | IC50 (IGF-1R) [µM] | IC50 (JAK2) [µM] | IC50 (ALK) [µM]
1 | CN1CCN(c2ccc(C(=O)Nc3n[nH]c4ccc(OCc5cc(F)cc(F)c5)cc34)c(NC3CCOCC3)c2)CC1 [Cpd. 8, N-{5-[(3,5-difluorobenzyl)oxy]-1H-indazol-3-yl}-4-(4-methylpiperazin-1-yl)-2-(tetrahydro-2H-pyran-4-ylamino)benzamide] | 0.14 | 0.02 | 0.02
2 | CN1CCN(c2ccc(C(=O)Nc3n[nH]c4ccc(OCc5cc(F)cc(F)c5)cc34)c(NCCF)c2)CC1 [Cpd. 36, N-{5-[(3,5-difluorobenzyl)oxy]-1H-indazol-3-yl}-2-[(2-fluoroethyl)amino]-4-(4-methylpiperazin-1-yl)benzamide] | 0.2 | 0.01 | 0.01
3 | O=C(Nc1n[nH]c2ccc(OCc3cc(F)cc(F)c3)cc12)c1ccccc1 [Ref. compound, reference compound] | > 10 | 0.22 | 1.87
